These compounds were tested against T1, human GlyT1c transporter (Homo sapiens, UniProt P48067) (assay: Radioligand binding assay using recombinant CHO cell membranes expressing human GlyT1). Conditions: radioligand binding to human GlyT1c transporter-expressing membranes.
T1 construct: expressed in transfected cells; host or cells: CHO cells (recombinant; line hGlyT1c_5_CHO is named for the uptake assay)
T1 sequence (P48067 1-706): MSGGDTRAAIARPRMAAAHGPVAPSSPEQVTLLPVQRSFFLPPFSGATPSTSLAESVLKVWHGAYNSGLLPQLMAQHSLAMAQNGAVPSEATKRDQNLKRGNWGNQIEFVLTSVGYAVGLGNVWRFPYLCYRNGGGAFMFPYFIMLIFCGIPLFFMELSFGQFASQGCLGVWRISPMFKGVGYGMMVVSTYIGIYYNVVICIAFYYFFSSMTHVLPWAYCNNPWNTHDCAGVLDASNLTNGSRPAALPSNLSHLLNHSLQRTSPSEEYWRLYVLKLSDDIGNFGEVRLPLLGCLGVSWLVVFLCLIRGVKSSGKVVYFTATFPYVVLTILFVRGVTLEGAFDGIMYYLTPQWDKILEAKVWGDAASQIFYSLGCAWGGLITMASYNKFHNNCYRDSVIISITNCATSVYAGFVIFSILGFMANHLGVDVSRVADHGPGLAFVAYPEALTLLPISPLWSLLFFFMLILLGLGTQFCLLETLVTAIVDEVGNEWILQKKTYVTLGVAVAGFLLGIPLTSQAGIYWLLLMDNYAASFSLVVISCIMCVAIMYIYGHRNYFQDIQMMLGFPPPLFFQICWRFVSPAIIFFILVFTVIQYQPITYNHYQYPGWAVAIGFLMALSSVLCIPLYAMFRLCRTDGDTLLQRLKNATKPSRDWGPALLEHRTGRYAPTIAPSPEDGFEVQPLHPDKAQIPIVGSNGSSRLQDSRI
From the text: 2. Radioligand binding assays using recombinant CHO cell membranes expressing human GlyT1: […]

`CC(C)c1csc(CN[C@H]2CN(S(=O)(=O)c3cn(C)cn3)C[C@@H]2c2ccccc2)n1` [Example 556, (3R,4S)-1-[(1-methyl-1H-imidazol-4-yl)sulfonyl]-4-phenyl-N-{[4-(propan-2-yl)-1,3-thiazol-2-yl]methyl}pyrrolidin-3-amine] and `Cc1nc(C)c(CN[C@H]2CN(S(=O)(=O)c3cn(C)cn3)C[C@@H]2c2ccccc2)s1` [Example 441, (3R,4S)-N-[(2,4-dimethyl-1,3-thiazol-5-yl)methyl]-1-[(1-methyl-1H-imidazol-4-yl)sulfonyl]-4-phenylpyrrolidin-3-amine] cannot be ordered by Ki: ≤ 10000 nM for the first, ≤ 10000 nM for the second.

`Cn1cnc(S(=O)(=O)N2C[C@@H](Nc3cccc(F)c3)[C@H](c3ccccc3)C2)c1` (relative stereo) [Example 70, trans-N-(3-fluorophenyl)-1-[(1-methyl-1H-imidazol-4-yl)sulfonyl]-4-phenylpyrrolidin-3-amine] and `Cn1cnc(S(=O)(=O)N2C[C@H](Nc3cccc(C(F)(F)F)c3)[C@@H](c3ccccc3)C2)c1` [Example 397, (3R,4S)-1-[(1-methyl-1H-imidazol-4-yl)sulfonyl]-4-phenyl-N-[3-(trifluoromethyl)phenyl]pyrrolidin-3-amine] cannot be ordered by Ki: ≤ 1000 nM for the first, ≤ 10 nM for the second.

`Cc1ccc(CN[C@@H]2CN(S(=O)(=O)c3cn(C)cn3)C[C@H]2c2ccc(F)cc2)cc1` (relative stereo) [Example 155, trans-4-(4-fluorophenyl)-N-(4-methylbenzyl)-1-[(1-methyl-1H-imidazol-4-yl)sulfonyl]pyrrolidin-3-amine] and `Cn1cnc(S(=O)(=O)N2C[C@@H](NCc3cccc(C(F)(F)F)c3)[C@H](c3ccc(F)cc3)C2)c1` (relative stereo) [Example 266, trans-4-(4-fluorophenyl)-1-[(1-methyl-1H-imidazol-4-yl)sulfonyl]-N-[3-(trifluoromethyl)benzyl]pyrrolidin-3-amine] cannot be ordered by Ki: ≤ 100 nM for the first, ≤ 1000 nM for the second.

`Cn1cnc(S(=O)(=O)N2C[C@@H](CNc3ccc(C(F)(F)F)cc3)[C@H](c3ccc(F)cc3)C2)c1` (relative stereo) [Example 291, N-({trans-4-(4-fluorophenyl)-1-[(1-methyl-1H-imidazol-4-yl)sulfonyl]pyrrolidin-3-yl}methyl)-4-(trifluoromethyl)aniline] and `Cn1cnc(S(=O)(=O)N2C[C@H](NCc3ccc(C(F)(F)F)cc3Cl)[C@@H](c3ccc(F)cc3)C2)c1` [Example 322, (3R,4S)-N-[2-chloro-4-(trifluoromethyl)benzyl]-4-(4-fluorophenyl)-1-[(1-methyl-1H-imidazol-4-yl)sulfonyl]pyrrolidin-3-amine] cannot be ordered by Ki: ≤ 100 nM for the first, ≤ 10 nM for the second.

`COCC1(CN[C@H]2CN(S(=O)(=O)c3cn(C)cn3)C[C@@H]2c2ccccc2)CC1` [Example 590, (3R,4S)-N-{[1-(methoxymethyl)cyclopropyl]methyl}-1-[(1-methyl-1H-imidazol-4-yl)sulfonyl]-4-phenylpyrrolidin-3-amine] and `Cn1cnc(S(=O)(=O)N2C[C@H](NCC3(C)CCCCC3)[C@@H](c3ccccc3)C2)c1` [Example 467, (3R,4S)-N-[(1-methylcyclohexyl)methyl]-1-[(1-methyl-1H-imidazol-4-yl)sulfonyl]-4-phenylpyrrolidin-3-amine] cannot be ordered by Ki: ≤ 10000 nM for the first, ≤ 1000 nM for the second.

`Cn1cnc(S(=O)(=O)N2C[C@@H](Nc3ccccc3F)[C@H](c3ccccc3)C2)c1` (relative stereo) [Example 69, trans-N-(2-fluorophenyl)-1-[(1-methyl-1H-imidazol-4-yl)sulfonyl]-4-phenylpyrrolidin-3-amine] and `Cn1cnc(S(=O)(=O)N2C[C@@H](NC(=O)c3cccc(F)c3)[C@H](c3ccccc3)C2)c1` (relative stereo) [Example 18, 3-fluoro-N-{trans-1-[(1-methyl-1H-imidazol-4-yl)sulfonyl]-4-phenylpyrrolidin-3-yl}benzamide] cannot be ordered by Ki: ≤ 10000 nM for the first, ≤ 10000 nM for the second.

`CCCC(F)(F)CN[C@H]1CN(S(=O)(=O)c2cn(C)cn2)C[C@@H]1c1ccc(F)cc1` [Example 734, (3R,4S)-N-(2,2-difluoropentyl)-4-(4-fluorophenyl)-1-[(1-methyl-1H-imidazol-4-yl)sulfonyl]pyrrolidin-3-amine] and `Cn1cnc(S(=O)(=O)N2C[C@@H](Nc3ccc(C(F)(F)F)cc3)[C@H](c3ccccc3)C2)c1` (relative stereo) [Example 68, trans-1-[(1-methyl-1H-imidazol-4-yl)sulfonyl]-4-phenyl-N-[4-(trifluoromethyl)phenyl]pyrrolidin-3-amine] cannot be ordered by Ki: ≤ 100 nM for the first, ≤ 1000 nM for the second.

`Cn1cnc(S(=O)(=O)N2C[C@@H](Nc3ccnc(C(F)(F)F)c3)[C@H](c3ccccc3Cl)C2)c1` (relative stereo) [Example 259, N-{trans-4-(2-chlorophenyl)-1-[(1-methyl-1H-imidazol-4-yl)sulfonyl]pyrrolidin-3-yl}-2-(trifluoromethyl)pyridin-4-amine] and `Cn1cnc(S(=O)(=O)N2C[C@@H](Nc3cccc(C(C)(C)C)c3)[C@H](c3ccccc3)C2)c1` (relative stereo) [Example 221, trans-N-(3-tert-butylphenyl)-1-[(1-methyl-1H-imidazol-4-yl)sulfonyl] -4-phenylpyrrolidin-3-amine] cannot be ordered by Ki: ≤ 1000 nM for the first, ≤ 1000 nM for the second.

`Cc1cc(C#N)cc(N[C@@H]2CN(S(=O)(=O)c3cn(C)cn3)C[C@H]2c2ccccc2)c1` (relative stereo) [Example 101, 3-methyl-5-({trans-1-[(1-methyl-1H-imidazol-4-yl)sulfonyl]-4-phenylpyrrolidin-3-yl}amino)benzonitrile] and `CCOC(=O)N[C@H]1CN(S(=O)(=O)c2cn(C)cn2)C[C@@H]1c1ccccc1` [Example 541, ethyl {(3R,4S)-1-[(1-methyl-1H-imidazol-4-yl)sulfonyl]-4-phenylpyrrolidin-3-yl}carbamate] cannot be ordered by Ki: ≤ 1000 nM for the first, ≤ 10000 nM for the second.

`Cc1oc2ccccc2c1CN[C@H]1CN(S(=O)(=O)c2cn(C)cn2)C[C@@H]1c1ccccc1` [Example 443, (3R,4S)-N-[(2-methyl-1-benzofuran-3-yl)methyl]-1-[(1-methyl-1H-imidazol-4-yl)sulfonyl]-4-phenylpyrrolidin-3-amine] and `O=S(=O)(c1cnc2n1CCC2)N1CC(Nc2ccc(F)c(F)c2)C(c2ccccc2)C1` (stereo not drawn) [Example 497, N-(3,4-difluorophenyl)-1-(6,7-dihydro-5H-pyrrolo[1,2-a]imidazol-3-ylsulfonyl)-4-phenylpyrrolidin-3-amine] cannot be ordered by Ki: ≤ 1000 nM for the first, ≤ 10000 nM for the second.

`CCCCCCN(CCCCCC)[C@@H]1CN(S(=O)(=O)c2cn(C)cn2)C[C@H]1c1ncccc1F` (relative stereo) [Example 763, Trans-4-(3-fluoropyridin-2-yl)-N,N-dihexyl-1-[(1-methyl-1H-imidazol-4-yl)sulfonyl]pyrrolidin-3-amine] and `CCCCCN(CCCCC)[C@@H]1CN(S(=O)(=O)c2cn(C)cn2)C[C@H]1c1ncccc1F` (relative stereo) [Example 764, Trans-4-(3-fluoropyridin-2-yl)-1-[(1-methyl-1H-imidazol-4-yl)sulfonyl]-N,N-dipentylpyrrolidin-3-amine] cannot be ordered by Ki: ≤ 1000 nM for the first, ≤ 1000 nM for the second.

With `COc1ccc(S(=O)(=O)N2C[C@@H](NC(=O)c3cc(Cl)cc(Cl)c3)[C@H](c3ccccc3)C2)cc1` (relative stereo) [Example 135] the Ki was > 10000 nM.

Same assay, conditions: radioligand binding, recombinant CHO cell membranes expressing human GlyT1c

`CC(C)c1ccnc(N[C@H]2CN(S(=O)(=O)c3cn(C)cn3)C[C@@H]2c2ccccc2)c1` [Example 813, N-{(3R,4S)-1-[(1-methyl-1H-imidazol-4-yl)sulfonyl]-4-phenylpyrrolidin-3-yl}-4-(propan-2-yl)pyridin-2-amine] was tested, and the Ki was ≤ 100 nM.

Reference: patent EP2970215B1, “PYRROLIDINE DERIVATIVES, PHARMACEUTICAL COMPOSITIONS CONTAINING THEM, AND THEIR USE IN THERAPY” (AbbVie Deutschland GmbH & Co. KG, priority 2013, dated 2014)
